Where “and” joins values, the source holds several entries; their conditions need not be identical. Equal values may be shown once.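 How tested: cells in 96-well plates exposed to compound for 48 hours at five concentrations. GI50 marks 50% less growth. TGI marks complete inhibition of growth.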
Assays:
Assay in all cases: NCI tumour cell line growth inhibition, 48 h
HCC-2998 colon = system: HCC-2998 colon
HOP-92 NSCLC = system: HOP-92 NSCLC
MCF7 breast = system: MCF7 breast
MDA-MB-231 breast = system: MDA-MB-231 breast
MDA-MB-435 = system: MDA-MB-435
NCI-H226 lung = system: NCI-H226 lung
SF-268 CNS = system: SF-268 CNS
T-47D breast = system: T-47D breast
TK-10 renal = system: TK-10 renal
U251 CNS = system: U251 CNS

| SMILES | GI50 (HCC-2998 colon) [µM] | TGI (HCC-2998 colon) | GI50 (HOP-92 NSCLC) [µM] | TGI (HOP-92 NSCLC) | GI50 (MCF7 breast) [µM] | TGI (MCF7 breast) | GI50 (MDA-MB-231 breast) [µM] | TGI (MDA-MB-231 breast) [µM] | GI50 (MDA-MB-435) | TGI (MDA-MB-435) | GI50 (NCI-H226 lung) [µM] | TGI (NCI-H226 lung) | GI50 (SF-268 CNS) [µM] | TGI (SF-268 CNS) | GI50 (T-47D breast) [µM] | TGI (T-47D breast) | GI50 (TK-10 renal) [µM] | TGI (TK-10 renal) | GI50 (U251 CNS) [µM] | TGI (U251 CNS) [µM] |
| --- | --- | --- | --- | --- | --- | --- | --- | --- | --- | --- | --- | --- | --- | --- | --- | --- | --- | --- | --- | --- |
| O=C(/C=C/c1ccc(C(F)(F)F)cc1)Nc1ccc(C=C2c3ccccc3C(=O)c3ccccc32)cc1 | 8.71 | > 100 µM | 1.49 | 22.4 µM | 4.54 | > 100 µM | 16 | > 100 | 0.64 µM | 2.67 µM | 14.2 | > 100 µM | 14.3 | > 100 µM | 3.39 | 56.8 µM | 23.6 | > 100 µM | 5.69 | 60.7 |
| O=C(/C=C/c1ccc(O)c(O)c1)NCc1c[nH]c2ccccc12 | 35.7 | 76.1 µM | > 100 | > 100 µM | 70.3 | > 100 µM | 75.9 | > 100 | 41.9 µM | > 100 µM | 71.3 | > 100 µM | 63.8 | > 100 µM | > 100 | > 100 µM | 18.1 | > 100 µM | 74 | > 100 |
| O=c1cc(-c2ccc(O)cc2)oc2cc(O[C@@H]3O[C@H](CO)[C@@H](O)[C@H](O)[C@H]3O)cc(O)c12 |  | > 100 µM |  | > 100 µM |  | > 100 µM |  | > 100 |  | > 100 µM |  | > 100 µM |  | > 100 µM |  | > 100 µM |  | > 100 µM |  | > 100 |
| COC(=O)C(CCC(=O)CCl)N1C(=O)c2ccccc2C1=O (stereo unspecified) |  | 22.5 µM |  | 12.1 µM |  | 18.5 µM |  | 28.7 |  | 22 µM |  | 29.9 µM |  | 28.4 µM |  | 26.8 µM |  | 21.5 µM |  | 28.9 |
| CC1=C2C(=CC(C)(C)[C@@H]2O)C(=O)[C@](C)(O)C12CC2 | 0.0237 | 0.079 µM and 0.0423 µM | 0.0268 | 0.0887 µM and 0.0712 µM | 0.00472 | 0.0469 µM and 0.123 µM | 0.0513 |  | 0.025 µM and 0.0147 µM | 0.0706 µM and 0.0319 µM | 0.0709 | 0.232 µM and 0.171 µM | 0.00973 | 0.0727 µM and 0.0659 µM | 0.0489 | 0.359 µM and 0.0974 µM | 0.0511 | 0.222 µM and 0.236 µM | 0.0169 |  |
| CN1CCN(Cc2ccc(NC(=O)c3cncc(C#Cc4cnc(N)cc4C#N)c3)cc2C(F)(F)F)CC1 | 3.9 | 15.4 µM | 0.906 | 4.44 µM | 3.64 | 16.2 µM | 1.15 | 3.1 | 1.98 µM | 11.7 µM | 0.706 | 11.9 µM | 3.7 | 19.2 µM | 4.42 | 21.1 µM | 4.92 | 17.5 µM | 4.45 | 19.1 |
| CN(C)CCNC(=O)c1ccc(-c2nc3ccc4[nH]ncc4c3c3c2C2CCC3C2)cc1 (stereo unspecified) | 1.74 | 5.64 µM | 1.74 | 4.25 µM | 0.889 | 6.7 µM | 1.64 | 4.11 | 1.28 µM | 4.45 µM | 1.28 | 5.43 µM | 0.967 | 3.3 µM | 2.25 | 7.86 µM | 0.723 | 8.02 µM | 1.17 | 8.89 |
| CCN1CCN(Cc2ccc(NC(=O)Nc3nc4ccc(Oc5ccnc(C(=O)NC)c5)cc4s3)cc2C(F)(F)F)CC1 | 2.05 | 3.67 µM | 1.94 | 3.91 µM | 1.23 | 2.89 µM | 1.74 | 3.4 | 1.44 µM | 2.86 µM | 1.45 | 3.16 µM | 2 | 4.12 µM | 1.99 | 4.25 µM | 2.5 | 4.54 µM | 1.85 | 3.45 |
| C1=C/COCc2cc(ccc2OCCN2CCCC2)Nc2nccc(n2)-c2ccc(o2)COC/1 | 2.18 | 7.93 µM | 2.21 | 9.47 µM | 0.734 | 3.84 µM | 1.97 | 7.9 | 1.2 µM | 3.73 µM | 1.74 | 6.13 µM | 1.69 | 4.45 µM | 1.21 | 7.33 µM | 2.42 | 12 µM | 3.07 | 14.7 |
| Cc1ccc2nc(-c3ccc(OCC(=O)N=Nc4c(O)[nH]c5ccccc45)cc3)[nH]c2c1 | 4.1 | 20.5 µM | 2.79 | 18.2 µM | 1.85 | 3.96 µM | 1.83 | 3.93 | 1.95 µM | 3.88 µM | 11.2 | 56.1 µM | 3.54 | 14.4 µM | 2.02 | 4.88 µM | 12.8 | 30.8 µM | 1.86 | 3.6 |
| COC(=O)c1cc2c(cc1Cl)SC1=NN(C)S(=O)N1S2(=O)=O (stereo unspecified) | > 100 | > 100 µM | 53.7 | > 100 µM | > 100 | > 100 µM | > 100 | > 100 | > 100 µM | > 100 µM | > 100 | > 100 µM | > 100 | > 100 µM | > 100 | > 100 µM | > 100 | > 100 µM | > 100 | > 100 |
| Cc1cc(C)c2c(n1)sc1c(N)ncnc12 | > 25 | > 25 µM | 1.43 | > 14 µM | > 25 | > 25 µM | > 24 | > 25 | > 25 µM | > 25 µM | 11.9 | > 25 µM | > 25 | > 25 µM | > 25 | > 25 µM | 10.1 | > 25 µM | > 25 | > 25 |
| CCCn1cnc2c(SCC(=O)O)nc(N)nc21 |  | > 100 µM |  | > 100 µM |  | > 100 µM |  | > 100 |  | > 100 µM |  | > 100 µM |  | > 100 µM |  | > 100 µM |  | > 100 µM |  | > 100 |
| CC[C@@]1(OC(=O)CN)C(=O)OCc2c1cc1n(c2=O)Cc2c-1nc1cc3c(cc1c2CCl)OCO3 | 0.283 | 3.76 µM | 0.0724 | 7.13 µM | < 0.01 | 12.6 µM | 1.9 | > 34.3 | 0.16 µM | 4.15 µM | 0.0201 | 0.397 µM | < 0.01 | 0.516 µM | < 0.01 | 7.79 µM | 0.947 | 7.62 µM | 0.0185 | > 42.9 |
| CSc1ncc(Br)c(Sc2nc(N)nc3nc[nH]c23)n1 | 2.56 | 16.2 µM | 0.456 | 5.23 µM | 1.91 | 11.9 µM | 2.39 | 58.3 | 2.5 µM | > 100 µM | 2.65 | 29.5 µM | 3.6 | 85.6 µM | 1.95 | 21.2 µM | 2.45 | 15.8 µM | 10.3 | 57 |
| O=C(Nc1ccc(F)cc1F)c1cc(Cl)ccc1O | 2.97 | 9.51 µM | 0.232 | 0.942 µM | 2.05 | > 100 µM | 1.74 | 7.48 | 1.21 µM | 8.53 µM | 1.29 | 5.73 µM | 1.3 | 11.6 µM | 0.473 | 5.5 µM | 5.53 | 31.8 µM | 1.38 | 16 |
| CCCCCCCCOC(=O)c1c(C)[nH]c(/C=C2\N=C(c3ccc[nH]3)C=C2OC)c1C | 0.0398 | 3.46 µM | 0.0456 | 0.228 µM | 0.0462 | 1.67 µM | < 0.0182 | 0.517 | 0.0226 µM | 1.41 µM | 0.0873 | 6.26 µM | 0.0498 | 7.2 µM | 0.0556 | 10.4 µM | 0.0484 | 7.29 µM | 0.0258 | 1.65 |
| COc1cccc(CN(C)c2ccc(CO)c(Cl)c2)c1 | 16.9 | 74.8 µM | 6.97 | 56.9 µM | 0.504 | > 43.7 µM | 31 | > 100 | 19.7 µM | 66.2 µM | 0.0588 | 0.202 µM | 44.5 | > 100 µM | 0.298 | 2.86 µM |  |  | 3.32 | > 64.1 |
| CN(Cc1ccc(C(F)(F)F)cc1)CC(O)C(=O)Nc1ccc(Cl)cc1 (stereo unspecified) | 1.66 | 3.08 µM | 1.08 | 2.37 µM | 1.04 | 2.36 µM | 1.34 | 2.73 | 1.52 µM | 3 µM | 1.83 | 3.7 µM | 1.4 | 2.95 µM | 1.38 | 2.87 µM | 1.74 | 3.38 µM | 1.73 | 3.16 |
